In assay [1] the target is T1, Progesterone receptor (Homo sapiens, UniProt P06401).
T1 sequence (P06401 whole entry): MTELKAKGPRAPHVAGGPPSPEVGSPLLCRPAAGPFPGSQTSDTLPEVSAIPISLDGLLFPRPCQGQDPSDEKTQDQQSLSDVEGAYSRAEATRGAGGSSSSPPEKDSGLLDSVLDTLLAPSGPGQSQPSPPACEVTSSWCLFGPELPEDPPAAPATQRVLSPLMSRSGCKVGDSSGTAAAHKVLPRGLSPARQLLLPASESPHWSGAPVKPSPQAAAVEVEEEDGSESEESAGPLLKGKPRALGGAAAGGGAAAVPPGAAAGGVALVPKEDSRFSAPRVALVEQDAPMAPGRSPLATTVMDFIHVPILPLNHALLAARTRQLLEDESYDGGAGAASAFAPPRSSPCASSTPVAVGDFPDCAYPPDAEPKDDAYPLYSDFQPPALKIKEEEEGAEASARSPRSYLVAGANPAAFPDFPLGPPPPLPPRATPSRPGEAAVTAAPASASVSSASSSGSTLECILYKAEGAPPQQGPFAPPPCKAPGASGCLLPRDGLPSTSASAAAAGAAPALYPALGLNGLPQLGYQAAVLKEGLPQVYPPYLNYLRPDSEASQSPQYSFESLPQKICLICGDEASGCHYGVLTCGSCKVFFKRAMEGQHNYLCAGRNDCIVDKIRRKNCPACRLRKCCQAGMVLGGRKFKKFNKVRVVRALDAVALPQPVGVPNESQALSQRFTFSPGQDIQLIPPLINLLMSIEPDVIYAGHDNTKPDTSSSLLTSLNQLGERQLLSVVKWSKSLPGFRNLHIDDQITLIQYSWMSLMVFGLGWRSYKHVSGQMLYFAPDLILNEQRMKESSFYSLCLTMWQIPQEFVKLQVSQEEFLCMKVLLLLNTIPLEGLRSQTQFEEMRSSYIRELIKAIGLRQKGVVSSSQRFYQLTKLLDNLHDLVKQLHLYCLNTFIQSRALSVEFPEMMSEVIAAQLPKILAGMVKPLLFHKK

Assay [2] deals with Voltage-gated inwardly rectifying potassium channel KCNH2 (Homo sapiens, UniProt Q12809). The format is functional. Particulars: read-out: AC50.
Chain of Voltage-gated inwardly rectifying potassium channel KCNH2 (Q12809 whole entry): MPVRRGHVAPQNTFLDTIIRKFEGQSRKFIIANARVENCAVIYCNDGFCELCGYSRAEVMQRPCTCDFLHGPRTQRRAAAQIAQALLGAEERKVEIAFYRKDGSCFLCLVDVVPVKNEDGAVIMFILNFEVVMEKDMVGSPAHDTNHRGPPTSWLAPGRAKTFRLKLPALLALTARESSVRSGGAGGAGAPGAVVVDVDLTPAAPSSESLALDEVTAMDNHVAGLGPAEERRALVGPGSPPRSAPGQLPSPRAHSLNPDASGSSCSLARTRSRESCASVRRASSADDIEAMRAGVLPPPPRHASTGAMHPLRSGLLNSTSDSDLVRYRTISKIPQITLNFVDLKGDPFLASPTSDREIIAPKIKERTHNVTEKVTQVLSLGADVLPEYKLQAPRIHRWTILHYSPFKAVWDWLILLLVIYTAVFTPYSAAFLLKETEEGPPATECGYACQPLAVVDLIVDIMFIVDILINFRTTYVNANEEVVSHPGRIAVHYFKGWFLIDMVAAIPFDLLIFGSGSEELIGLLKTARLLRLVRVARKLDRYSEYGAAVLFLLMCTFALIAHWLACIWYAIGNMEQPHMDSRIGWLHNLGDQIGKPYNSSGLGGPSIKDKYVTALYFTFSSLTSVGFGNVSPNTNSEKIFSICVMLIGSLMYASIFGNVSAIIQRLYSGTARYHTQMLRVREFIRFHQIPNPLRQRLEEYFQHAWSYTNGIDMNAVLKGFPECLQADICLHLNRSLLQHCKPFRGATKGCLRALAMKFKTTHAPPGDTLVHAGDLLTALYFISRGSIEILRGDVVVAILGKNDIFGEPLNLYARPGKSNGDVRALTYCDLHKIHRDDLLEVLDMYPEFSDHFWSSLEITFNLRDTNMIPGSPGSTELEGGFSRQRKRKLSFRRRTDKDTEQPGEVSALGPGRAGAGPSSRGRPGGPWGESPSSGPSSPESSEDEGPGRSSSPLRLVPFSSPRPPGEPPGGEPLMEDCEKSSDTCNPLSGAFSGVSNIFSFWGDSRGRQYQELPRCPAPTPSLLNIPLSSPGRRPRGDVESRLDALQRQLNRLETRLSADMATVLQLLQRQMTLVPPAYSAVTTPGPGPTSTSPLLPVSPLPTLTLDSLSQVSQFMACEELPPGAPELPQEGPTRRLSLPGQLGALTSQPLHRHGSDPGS
In assay [3] the target is T2, Muscarinic acetylcholine receptor M2 (Homo sapiens, UniProt P08172).
T2 sequence (P08172 whole entry): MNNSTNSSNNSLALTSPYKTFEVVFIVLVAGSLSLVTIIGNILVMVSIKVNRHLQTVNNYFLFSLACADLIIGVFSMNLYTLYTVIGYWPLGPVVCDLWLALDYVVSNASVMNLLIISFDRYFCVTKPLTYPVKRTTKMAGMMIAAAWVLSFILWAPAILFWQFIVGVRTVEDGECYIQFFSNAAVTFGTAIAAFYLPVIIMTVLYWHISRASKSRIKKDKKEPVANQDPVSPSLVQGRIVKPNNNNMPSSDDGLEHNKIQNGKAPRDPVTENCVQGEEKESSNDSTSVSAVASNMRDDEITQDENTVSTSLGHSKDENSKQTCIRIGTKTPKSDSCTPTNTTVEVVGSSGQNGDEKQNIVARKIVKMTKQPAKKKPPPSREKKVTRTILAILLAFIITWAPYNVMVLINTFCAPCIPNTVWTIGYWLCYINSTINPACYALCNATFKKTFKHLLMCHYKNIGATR

The target in assay [4] is Prostaglandin G/H synthase 1 (Homo sapiens, UniProt P23219). The format is functional.
Chain of Prostaglandin G/H synthase 1 (P23219 whole entry): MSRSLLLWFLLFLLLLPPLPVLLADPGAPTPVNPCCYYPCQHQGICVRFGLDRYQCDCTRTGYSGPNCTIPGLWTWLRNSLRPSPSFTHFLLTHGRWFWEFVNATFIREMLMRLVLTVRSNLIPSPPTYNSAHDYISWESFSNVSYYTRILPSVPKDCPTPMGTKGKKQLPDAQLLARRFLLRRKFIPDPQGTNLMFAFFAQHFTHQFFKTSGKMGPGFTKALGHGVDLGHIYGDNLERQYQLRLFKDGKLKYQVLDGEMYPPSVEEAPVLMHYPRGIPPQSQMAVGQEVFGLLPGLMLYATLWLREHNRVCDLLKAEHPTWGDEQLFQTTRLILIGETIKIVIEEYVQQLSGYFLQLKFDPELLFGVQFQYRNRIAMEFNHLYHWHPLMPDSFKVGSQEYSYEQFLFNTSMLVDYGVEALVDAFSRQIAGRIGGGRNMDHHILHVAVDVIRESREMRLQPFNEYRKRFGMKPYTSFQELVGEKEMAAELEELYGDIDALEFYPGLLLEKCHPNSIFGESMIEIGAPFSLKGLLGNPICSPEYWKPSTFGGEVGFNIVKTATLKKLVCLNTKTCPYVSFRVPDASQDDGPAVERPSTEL
The target in assay [5] is T3, Alpha-2A adrenergic receptor (Homo sapiens, UniProt P08913).
T3 sequence (P08913 whole entry): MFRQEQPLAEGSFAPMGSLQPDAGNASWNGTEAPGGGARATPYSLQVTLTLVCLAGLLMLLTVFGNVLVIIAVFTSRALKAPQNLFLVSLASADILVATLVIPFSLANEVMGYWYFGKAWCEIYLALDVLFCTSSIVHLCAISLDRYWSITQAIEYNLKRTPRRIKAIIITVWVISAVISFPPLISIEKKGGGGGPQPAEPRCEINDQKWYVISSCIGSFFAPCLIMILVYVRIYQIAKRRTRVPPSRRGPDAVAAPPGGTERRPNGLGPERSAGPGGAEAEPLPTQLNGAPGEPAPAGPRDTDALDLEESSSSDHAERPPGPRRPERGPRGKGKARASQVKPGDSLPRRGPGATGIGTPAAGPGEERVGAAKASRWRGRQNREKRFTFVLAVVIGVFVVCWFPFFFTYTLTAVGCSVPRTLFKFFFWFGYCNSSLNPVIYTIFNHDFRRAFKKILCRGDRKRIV

Assay [6] deals with Sodium-dependent noradrenaline transporter (Homo sapiens, UniProt P23975).
Chain of Sodium-dependent noradrenaline transporter (P23975 whole entry): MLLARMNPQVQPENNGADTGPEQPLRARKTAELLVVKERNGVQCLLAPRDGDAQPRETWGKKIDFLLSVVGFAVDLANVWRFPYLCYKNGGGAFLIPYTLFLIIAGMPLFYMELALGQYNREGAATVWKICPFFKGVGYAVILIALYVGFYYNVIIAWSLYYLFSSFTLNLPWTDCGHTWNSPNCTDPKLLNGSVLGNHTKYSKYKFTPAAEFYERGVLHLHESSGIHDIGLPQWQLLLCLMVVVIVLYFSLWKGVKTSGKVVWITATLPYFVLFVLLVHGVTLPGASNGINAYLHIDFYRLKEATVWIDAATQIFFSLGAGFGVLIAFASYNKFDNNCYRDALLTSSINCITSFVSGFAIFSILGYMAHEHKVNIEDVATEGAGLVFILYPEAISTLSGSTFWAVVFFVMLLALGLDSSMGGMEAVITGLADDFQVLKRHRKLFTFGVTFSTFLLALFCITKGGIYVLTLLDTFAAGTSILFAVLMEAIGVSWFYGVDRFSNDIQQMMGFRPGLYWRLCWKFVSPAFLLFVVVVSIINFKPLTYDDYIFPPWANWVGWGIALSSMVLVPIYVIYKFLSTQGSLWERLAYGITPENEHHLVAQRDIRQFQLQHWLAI
Assay [7] has as its target Sodium-dependent dopamine transporter (Homo sapiens, UniProt Q01959).
The target in assay [8] is Acetylcholinesterase (Homo sapiens, UniProt P22303). The format is functional.
Chain of Acetylcholinesterase (P22303 whole entry): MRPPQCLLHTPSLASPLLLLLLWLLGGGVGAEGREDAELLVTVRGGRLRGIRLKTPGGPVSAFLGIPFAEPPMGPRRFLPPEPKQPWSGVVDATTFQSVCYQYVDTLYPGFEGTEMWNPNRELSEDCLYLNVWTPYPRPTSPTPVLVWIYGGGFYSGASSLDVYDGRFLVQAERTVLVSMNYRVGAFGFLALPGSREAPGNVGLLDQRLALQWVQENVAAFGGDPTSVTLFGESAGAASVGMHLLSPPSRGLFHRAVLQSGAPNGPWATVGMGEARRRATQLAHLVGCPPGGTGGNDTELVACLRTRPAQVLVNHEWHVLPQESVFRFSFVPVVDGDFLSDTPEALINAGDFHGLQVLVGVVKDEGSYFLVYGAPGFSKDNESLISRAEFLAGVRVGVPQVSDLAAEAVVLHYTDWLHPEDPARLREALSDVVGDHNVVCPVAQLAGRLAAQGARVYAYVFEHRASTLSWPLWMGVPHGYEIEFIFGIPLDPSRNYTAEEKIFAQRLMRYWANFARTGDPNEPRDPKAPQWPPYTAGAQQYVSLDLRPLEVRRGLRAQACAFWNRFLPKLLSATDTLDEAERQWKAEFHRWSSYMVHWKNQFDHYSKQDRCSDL
Assay [9] concerns the target T4, Thromboxane A2 receptor (Homo sapiens, UniProt P21731).
T4 sequence (P21731 whole entry): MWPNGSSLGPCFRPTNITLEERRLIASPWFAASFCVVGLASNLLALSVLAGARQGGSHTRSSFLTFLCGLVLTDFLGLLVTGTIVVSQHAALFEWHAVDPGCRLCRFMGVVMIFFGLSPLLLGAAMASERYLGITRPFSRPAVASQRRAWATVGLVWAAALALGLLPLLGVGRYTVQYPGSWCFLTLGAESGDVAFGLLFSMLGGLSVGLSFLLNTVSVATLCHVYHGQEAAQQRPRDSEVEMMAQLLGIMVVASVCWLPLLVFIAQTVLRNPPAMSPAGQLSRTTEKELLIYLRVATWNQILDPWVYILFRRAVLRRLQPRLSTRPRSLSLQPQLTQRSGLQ
The format is functional, cell-based.

Assay [10] concerns the target cGMP-inhibited 3',5'-cyclic phosphodiesterase 3A (Homo sapiens, UniProt Q14432). The format is functional.
The target of assay [11] is Sodium-dependent serotonin transporter (Homo sapiens, UniProt P31645).
Chain of Sodium-dependent serotonin transporter (P31645 whole entry): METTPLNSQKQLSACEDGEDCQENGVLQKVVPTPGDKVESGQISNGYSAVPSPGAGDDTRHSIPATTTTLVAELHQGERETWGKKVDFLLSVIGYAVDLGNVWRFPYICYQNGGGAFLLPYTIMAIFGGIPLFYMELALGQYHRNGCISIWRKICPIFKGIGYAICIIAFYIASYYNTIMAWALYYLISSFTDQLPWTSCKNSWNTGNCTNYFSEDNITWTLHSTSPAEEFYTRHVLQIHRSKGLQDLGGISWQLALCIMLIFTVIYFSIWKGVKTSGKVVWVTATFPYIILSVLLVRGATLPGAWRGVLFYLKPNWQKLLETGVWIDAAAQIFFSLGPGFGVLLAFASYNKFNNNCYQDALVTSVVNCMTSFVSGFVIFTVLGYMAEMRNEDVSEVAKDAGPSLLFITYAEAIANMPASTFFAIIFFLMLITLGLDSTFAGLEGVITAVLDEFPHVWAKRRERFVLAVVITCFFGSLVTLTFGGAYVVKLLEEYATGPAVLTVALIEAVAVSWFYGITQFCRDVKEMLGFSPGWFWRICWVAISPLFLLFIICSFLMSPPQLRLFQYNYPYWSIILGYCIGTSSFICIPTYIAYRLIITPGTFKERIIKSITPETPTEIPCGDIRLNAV

This note sets out measurements from ChEMBL document CHEMBL5291721, “A preclinical secondary pharmacology resource illuminates target-adverse drug reaction associations of marketed drugs” (Nat Commun, 2023).
Further: assay procedure not described here.

Chain of Sodium-dependent dopamine transporter (Q01959 whole entry): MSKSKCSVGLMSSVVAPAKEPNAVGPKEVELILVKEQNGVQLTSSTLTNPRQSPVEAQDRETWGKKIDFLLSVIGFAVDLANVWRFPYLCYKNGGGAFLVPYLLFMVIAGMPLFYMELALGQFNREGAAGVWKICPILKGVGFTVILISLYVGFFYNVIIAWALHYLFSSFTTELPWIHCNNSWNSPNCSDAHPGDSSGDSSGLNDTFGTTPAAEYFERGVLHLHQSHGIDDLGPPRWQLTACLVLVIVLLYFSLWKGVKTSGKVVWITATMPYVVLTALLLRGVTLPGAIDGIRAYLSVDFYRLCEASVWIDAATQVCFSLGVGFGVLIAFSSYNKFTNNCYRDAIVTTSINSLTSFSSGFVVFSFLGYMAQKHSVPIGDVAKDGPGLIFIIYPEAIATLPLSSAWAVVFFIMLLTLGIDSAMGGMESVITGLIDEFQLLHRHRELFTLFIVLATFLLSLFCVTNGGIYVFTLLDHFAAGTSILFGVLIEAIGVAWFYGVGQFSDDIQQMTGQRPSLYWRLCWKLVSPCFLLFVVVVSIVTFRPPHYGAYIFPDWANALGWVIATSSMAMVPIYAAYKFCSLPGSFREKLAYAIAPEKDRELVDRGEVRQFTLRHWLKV

Turning to `CCCCC/C=C\C/C=C\C/C=C\CCCCC(=O)O` [GAMOLENIC ACID], the AC50 is over 30 µM in assay [1]; over 30 µM in assay [2]; over 30 µM in [3]; 11.6 µM in assay [4]; over 30 µM in [5]; over 30 µM in assay [6]. For the same molecule, the AC50 in assay [7], in assay [8], in [9], in assay [10] and in assay [11] was over 30 µM each time.

Turning to `COCCOc1cnc(NS(=O)(=O)c2ccccc2)nc1` [GLYMIDINE], the AC50 in assay [1], in assay [2], in assay [3], in assay [4], in assay [5] and in [6] was over 30 µM in each case. For the same molecule, the AC50 in assay [7], in [8], in [9], in assay [10] and in [11] was over 30 µM in each case.

For `CCC(=O)O[C@]1(C(=O)COC(C)=O)CC[C@H]2[C@@H]3CCC4=CC(=O)CC[C@]4(C)[C@H]3[C@@H](O)C[C@@]21C` [HYDROCORTISONE ACEPONATE], the AC50 is 0.326 µM in assay [1]; over 30 µM in assay [2]; over 30 µM in assay [3]; over 30 µM in [4]; over 30 µM in assay [5]; over 30 µM in [6]. In addition, the AC50 in assay [7], in [8], in [9], in [10] and in assay [11] was over 30 µM each time.

Consider `O=[N+]([O-])O[C@H]1CO[C@H]2[C@@H]1OC[C@H]2O[N+](=O)[O-]` [ISOSORBIDE DINITRATE], for which the AC50 in assay [1], in assay [2], in assay [3], in [4], in assay [5] and in assay [6] was over 30 µM each time. Moreover, the AC50 in [7], in assay [8], in assay [9], in assay [10] and in [11] was over 30 µM in each case.

As for `NC(=O)NCCC[C@H](N)C(=O)O` [L-CITRULLINE], the AC50 in assay [1], in [2], in [3], in assay [4], in [5] and in assay [6] was over 30 µM each time. The AC50 in assay [7], in assay [8], in assay [9], in assay [10] and in assay [11] was over 30 µM each time.

Turning to `CC(=O)O[C@H]1C[C@H](O[C@H]2[C@@H](O)C[C@H](O[C@H]3[C@@H](O)C[C@H](O[C@H]4CC[C@@]5(C)[C@H](CC[C@@H]6[C@@H]5C[C@@H](O)[C@]5(C)[C@@H](C7=CC(=O)OC7)CC[C@]65O)C4)O[C@@H]3C)O[C@@H]2C)O[C@H](C)[C@H]1O[C@@H]1O[C@H](CO)[C@@H](O)[C@H](O)[C@H]1O` [LANATOSIDE C], the AC50 in assay [1], in assay [2], in assay [3], in [4], in assay [5] and in [6] was over 30 µM in each case. Also, the AC50 in [7], in [8], in assay [9], in assay [10] and in assay [11] was over 30 µM in each case.

`Nc1nc(N)nc(Nc2ccc([As]3SCC(CO)S3)cc2)n1` (stereo unspecified) [MELARSOPROL]: the AC50 in assay [1] was over 30 µM; in [2], over 10 µM; in assay [3], over 30 µM; in [4] it was 23.5 µM; in [5], over 30 µM; in assay [6], over 30 µM. The AC50 in [7] is 29.2 µM; in assay [8], over 30 µM; in assay [9] it was over 30 µM; in assay [10] it was over 30 µM; in assay [11], over 30 µM.

In the case of `Cc1cc(CCN2CCN(c3cccc(Cl)c3)CC2)n[nH]1` [MEPIPRAZOLE], the AC50 in [1] was over 30 µM; in [2], 2.71 µM; in assay [3] it was over 30 µM; in assay [4] it was over 30 µM; in [5], 4.52 µM; in assay [6] it was over 30 µM. Besides, the AC50 in [7] was 8.04 µM; in assay [8], over 30 µM; in assay [9] it was over 30 µM; in assay [10], over 30 µM; in [11] it was 3.8 µM.

In the case of `CC[N+](C)(CC)CCOC(=O)C1c2ccccc2Oc2ccccc21` [METHANTHELINE], the AC50 in [1] was over 30 µM; in assay [2], 11 µM; in assay [3] it was 0.0126 µM; in assay [4], over 30 µM; in [5], over 30 µM; in assay [6], over 30 µM. In addition, the AC50 in assay [7], in [8], in [9], in assay [10] and in assay [11] was over 30 µM throughout.

Regarding `CO[C@H]1[C@@H](O)C[C@H](O[C@H]2[C@@H](O)C[C@H](O[C@H]3[C@@H](O)C[C@H](O[C@H]4CC[C@@]5(C)[C@H](CC[C@@H]6[C@@H]5C[C@@H](O)[C@]5(C)[C@@H](C7=CC(=O)OC7)CC[C@]65O)C4)O[C@@H]3C)O[C@@H]2C)O[C@@H]1C` [METILDIGOXIN], the AC50 in [1], in [2], in assay [3], in assay [4], in assay [5] and in assay [6] was over 30 µM in each case. For the same molecule, the AC50 in assay [7], in assay [8], in assay [9], in [10] and in assay [11] was over 30 µM throughout.

For `CCOC(=O)[C@H](CCc1ccccc1)N[C@@H](C)C(=O)N1Cc2cc(OC)c(OC)cc2C[C@H]1C(=O)O` [MOEXIPRIL], the AC50 in assay [1], in assay [2], in assay [3], in [4], in assay [5] and in assay [6] was over 30 µM throughout. In addition, the AC50 in assay [7] was over 30 µM; in assay [8], over 30 µM; in assay [9] it was over 30 µM; in assay [10], 25.4 µM; in assay [11], over 30 µM.
